From article PMC5515971, “Utility of spherical human liver microtissues for prediction of clinical drug-induced liver injury” (Archives of Toxicology, 2017)
Where two headings read alike, the source gives them in different places.

How the values were obtained:
[1] = system: 3D human liver microtissues (hLiMT); assay: Cytotoxicity (cellular ATP) in 3D human liver microtissues, 5-6 days treatment; type: cell-based; settings: read-out: IC50 SHORT;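 also: Hanging-drop spheroids, seven-point dilution series, re-dosed on day 3, CellTiter-Glo 2.0 luminescence, normalized to 0.5 or 1% DMSO vehicle controls on the same plate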
[2] = system: 3D human liver microtissues (hLiMT); assay: Cytotoxicity (cellular ATP, CellTiter-Glo 2.0) in 3D human liver microtissues, 14 day repeat-dose treatment
[3] = system: primary human hepatocytes (PHH); assay: Cytotoxicity (cellular ATP, CellTiter-Glo) in 2D plated primary human hepatocytes, 48 h treatment; type: cell-based; settings: for IC50: read-out: Geomean IC50; for cytotoxicity IC50 detected: in words;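 as to all read-outs here: 384-well plates, luminescence read-out, normalized to vehicle wells with 1% DMSO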
Description: Cryopreserved PHH (lot IZT) were thawed in InVitroGro HT™ thawing media at 37 °C, pelleted, and resuspended. Viable hepatocytes were counted by Trypan blue exclusion and plated in black-walled, BioCoat™ collagen 384-well plates at 13,000 cells/well in InVitroGro CP™ plating media supplemented with 1% Torpedo™ Antibiotic Mix and 5% fetal bovine serum and incubated overnight for 18 h. Cells were then treated with compounds for 48 h diluted in InVitroGro HI™ incubation media containing 1% Torpedo Antibiotic Mix, 10% fetal bovine serum, and 1% DMSO. […] Luminescence was determined on an EnVision™ Muliplate Reader (PerkinElmer, Waltham, MA, USA), and data were normalized to vehicle (1% DMSO) control wells.

[4] = cited from earlier work; for DILI category: clinical, from literature and product labels
[5] = ref Chen et al 2016 / Chen et al 2011; cited from earlier work
[6] = cited from earlier work
[7] = Homo sapiens, hLiMT, 5/6 days, ATP content
[8] = Homo sapiens, Hepatocyte, 336 h, read-out: Geomean IC50 [µM]
[9] = Hepatocyte, 2D primary human hepatocytes (lot IZT), 48 h treatment, total cellular ATP content
[10] = Table 1, ref Garside et al. (2014)
[11] = clinical DILI severity category, 1-5
[12] = table S-4, ref Garside et al. 2014
[13] = Homo sapiens, 336 h, read-out: IC50 LONG
[14] = human Cmax total, used for IC50/Cmax
[15] = human total plasma Cmax, ref literature values
[16] = 2D primary human hepatocytes (lot IZT), 48 h treatment, total cellular ATP content
[17] = read-out: Geomean IC50, decrease in total cellular ATP content, hLiMT treated for 14 days, hepatocyte lot IZT (except Dexamethasone) co-cultured with NPCs, n=1 or geometric mean

SMILES	IC50 [1, 7] [µM]	IC50 [2, 8] [µM]	IC50 [3, 9] [µM]	DILI severity category [4, 10]	DILI severity category [4, 11]	DILI category ([4]; ref Garside et al. 2014)	FDA DILI Classification DILI severity score [5]	LTKB DILI classification [5]	Cmax [6, 14] [µM]	Cmax [6, 15] [µM]	further results
CC(C)c1c(C(=O)Nc2ccccc2)c(-c2ccccc2)c(-c2ccc(F)cc2)n1CC[C@@H](O)C[C@@H](O)CC(=O)O [Atorvastatin]	70.7	6	–	–	–	–	–	–	–	–	–
COc1ccccc1Oc1c(NS(=O)(=O)c2ccc(C(C)(C)C)cc2)nc(-c2ncccn2)nc1OCCO [Bosentan]	100	~93	> 200	1: Severe clinical DILI (N = 23)	1. Severe Clinical DILI	1. Severe Clinical DILI	7	most DILI concern	–	–	cytotoxicity IC50 detected ([3]; PHH 48 h): no IC50 values were detected; DILI severity category [4, 12]: 1; IC50 [2, 13]: 93 µM
CN(C)CCC(c1ccc(Cl)cc1)c1ccccn1 (stereo not shown) [Chlorpheniramine]	100	–	–	3: Low clinical DILI concern (N = 23)	3. Low Clinical DILI Concern	3. Low Clinical DILI Concern	0	no DILI concern	0.044	0.0437	DILI severity category [4, 12]: 3
O=C1CN(/N=C/c2ccc(-c3ccc([N+](=O)[O-])cc3)o2)C(O)=N1 [Dantrolene]	–	> 100	> 100	1: Severe clinical DILI (N = 23)	1. Severe Clinical DILI	1. Severe Clinical DILI	8	most DILI concern	3.95	3.95	–
O=C1[C@H](CC[C@H](O)c2ccc(F)cc2)[C@@H](c2ccc(O)cc2)N1c1ccc(F)cc1 [Ezetimibe]	45.6	–	–	–	–	–	–	–	–	–	DILI severity category [4, 12]: 3; IC50 [2, 13]: 45.5 µM
NC(=O)OCC(COC(N)=O)c1ccccc1 [Felbamate]	–	> 100	> 100	1: Severe clinical DILI (N = 23)	1. Severe Clinical DILI	1. Severe Clinical DILI	7	most DILI concern	399	399	–
COc1ccc2c(c1)c(CC(=O)O)c(C)n2C(=O)c1ccc(Cl)cc1 [Indomethacin]	100	> 100	> 100	–	–	–	–	–	8.4	8.38	–
CCC(C)n1ncn(-c2ccc(N3CCN(c4ccc(OCC5COC(Cn6cncn6)(c6ccc(Cl)cc6Cl)O5)cc4)CC3)cc2)c1=O (stereo not shown) [Itraconazole]	–	1.6	> 25	2: High clinical DILI concern (N = 23)	2. High Clinical DILI Concern	2. High Clinical DILI Concern	8	most DILI concern	2.8	2.83	–
CS(=O)(=O)CCNCc1ccc(-c2ccc3ncnc(Nc4ccc(OCc5cccc(F)c5)c(Cl)c4)c3c2)o1 [Lapatinib]	–	~27.3	33.3	1: Severe clinical DILI (N = 23)	1. Severe Clinical DILI	1. Severe Clinical DILI	8	most DILI concern	19	19	–
Cc1cnc(NC(=O)C2=C(O)c3ccccc3S(=O)(=O)N2C)s1 [Meloxicam]	100	> 100	> 100	–	–	–	–	–	5.21	5.21	–
CN1C[C@H](CNC(=O)OCc2ccccc2)C[C@@H]2c3cccc4c3c(cn4C)C[C@H]21 [Metergoline]	12.3	7.8	20.1	–	–	–	–	–	0.07	0.07	classification at 100 μM IC50 threshold ([3]; PHH 48 h): false positives; classification at 100 μM IC50 threshold ([2]; hLiMT 14 days): false positives
COc1ccc2cc([C@H](C)C(=O)O)ccc2c1 [Naproxen]	100	–	–	–	–	–	–	–	–	–	–
O=C1CN(/N=C/c2ccc([N+](=O)[O-])o2)C(=O)N1 [Nitrofurantoin]	100	–	–	2: High clinical DILI concern (N = 23)	2. High Clinical DILI Concern	2. High Clinical DILI Concern	8	most DILI concern	21	21	DILI severity category [4, 12]: 2
CC1(C)S[C@@H]2[C@H](NC(=O)COc3ccccc3)C(=O)N2[C@H]1C(=O)O [Penicillin V]	100	> 100	> 100	–	–	–	–	–	14.3	14.3	–
[H]/N=C(/N)N/C(=N/[H])NCCc1ccccc1 [Phenformin]	7.7	< 12.5	5.1	3: Low clinical DILI concern (N = 23)	3. Low Clinical DILI Concern	3. Low Clinical DILI Concern	–	–	0.63	0.63	DILI severity category [4, 12]: 3; IC50 [2, 13]: 12.5 µM
O=c1[nH]c2ccccc2n1C1CCN(CCCC(c2ccc(F)cc2)c2ccc(F)cc2)CC1 [Pimozide]	–	> 6	17.6	3: Low clinical DILI concern (N = 23)	3. Low Clinical DILI Concern	3. Low Clinical DILI Concern	0	no DILI concern	0.11	0.11	–
CCc1ccc(CCOc2ccc(CC3SC(=O)NC3=O)cc2)nc1 (stereo not shown) [Pioglizatone, Pioglitazone]	–	> 15.6	> 125	3: Low clinical DILI concern (N = 23)	3. Low Clinical DILI Concern	3. Low Clinical DILI Concern	3	less DILI concern	2.95	2.95	–
CCN(CC)CCCC(C)Nc1c2ccc(Cl)cc2nc2ccc(OC)cc12 (stereo not shown) [Quinacrine]	3.7	> 2	7.3	–	–	–	–	–	–	258	IC50 [2, 13]: 2 µM
Cc1cc2c(cc1CC(=O)c1sccc1S(=O)(=O)Nc1onc(C)c1Cl)OCO2 [Sitax(s)entan]	–	–	–	1: Severe clinical DILI (N = 23)	1. Severe Clinical DILI	1. Severe Clinical DILI	8	most DILI concern	28.6	28.6	IC50 [3, 16]: > 500 µM; cytotoxicity IC50 detected ([3]; PHH 48 h): no IC50 values were detected; IC50 [2, 17]: 249 µM
Cc1cn([C@H]2C=C[C@@H](CO)O2)c(=O)[nH]c1=O [Stavudine]	–	> 500	> 500	1: Severe clinical DILI (N = 23)	1. Severe Clinical DILI	1. Severe Clinical DILI	8	most DILI concern	3.46	3.46	–
CCN(CC)CCNC(=O)c1c(C)[nH]c(/C=C2\C(=O)Nc3ccc(F)cc32)c1C [Sunitinib]	–	~2	13.3	1: Severe clinical DILI (N = 23)	1. Severe Clinical DILI	1. Severe Clinical DILI	8	most DILI concern	–	70.8	–
Cn1c(=O)c2[nH]cnc2n(C)c1=O [Theophylline]	–	> 100	–	–	–	–	–	–	–	–	IC50 ([3]; Homo sapiens, Hepatocyte, 48 h): > 100 µM; IC50 ([1]; Homo sapiens): 100 µM; Cmax ([6]; human, in vivo): 83.8 µM
CCOC(=O)CN[C@@H](C(=O)N1CC[C@H]1C(=O)NCc1ccc(/C(N)=N\O)cc1)C1CCCCC1 [Ximelagatran]	200	~151	> 200	–	–	–	–	–	0.45	0.45	IC50 ([2]; Homo sapiens, 336 h, read-out: IC50 (ATP-assay)): 121 µM; IC50 [2, 13]: 151 µM
CC(c1cc2ccccc2s1)N(O)C(N)=O (stereo not shown) [Zileuton]	–	> 100	> 100	2: High clinical DILI concern (N = 23)	2. High Clinical DILI Concern	2. High Clinical DILI Concern	5	most DILI concern	13.1	13.1	–
C[C@]12CC[C@@H]3c4ccc(O)cc4CC[C@H]3[C@@H]1CC[C@@H]2O [beta-Estradiol]	–	–	–	–	–	–	–	–	0.0006	0.0006	IC50 [3, 16]: > 100 µM; IC50 ([1]; hLiMT, 5/6 days, ATP content): 42 µM; IC50 [2, 17]: 13.5 µM
